# Key:
# Assay type in all cases: in vivo
# Barnyardgrass [1] = test: post-emergent herbicidal activity, greenhouse; conditions: 4 WAT
# How it was run: (§1)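 Seeds or propagules sown in compacted top soil, grown 2–3 weeks in greenhouse, then sprayed with compound solution/suspension containing ~0.4% emulsifier at tabulated rates. Injury scored visually versus untreated controls at ~2 and 4 weeks after treatment, expressed as a herbicidal activity index.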
# Cocklebur [2] = test: post-emergent herbicidal activity, greenhouse; conditions: 4 WAT
# How it was run: as §1
# Downy Brome [3] = test: post-emergent herbicidal activity, greenhouse; conditions: 4 WAT
# How it was run: as §1
# Hemp Sesbania = test: post-emergent herbicidal activity, greenhouse; conditions: Table II, 4 WAT
# How it was run: as §1
# Johnsongrass [4] = test: post-emergent herbicidal activity, greenhouse; conditions: Table I, 4 WAT
# How it was run: as §1
# Lambsquarters [5] = test: post-emergent herbicidal activity, greenhouse; conditions: 4 WAT
# How it was run: as §1
# Morningglory [6] = test: post-emergent herbicidal activity, greenhouse; conditions: 4 WAT
# How it was run: as §1
# Panicum Spp = test: post-emergent herbicidal activity, greenhouse; conditions: Table II, 4 WAT
# How it was run: as §1
# Quackgrass [7] = test: post-emergent herbicidal activity, greenhouse; conditions: Table I, 4 WAT
# How it was run: as §1
# Rice = test: post-emergent herbicidal activity, greenhouse; conditions: Table II, 4 WAT
# How it was run: as §1
# Smartweed [8] = test: post-emergent herbicidal activity, greenhouse; conditions: 4 WAT
# How it was run: as §1
# Sorghum = test: post-emergent herbicidal activity, greenhouse; conditions: Table II, 4 WAT
# How it was run: as §1
# Soybean = test: post-emergent herbicidal activity, greenhouse; conditions: Table II, 4 WAT
# How it was run: as §1
# Sugar Beet = test: post-emergent herbicidal activity, greenhouse; conditions: Table II, 4 WAT
# How it was run: as §1
# Velvetleaf [9] = test: post-emergent herbicidal activity, greenhouse; conditions: 4 WAT
# How it was run: as §1
# Wheat = test: post-emergent herbicidal activity, greenhouse; conditions: Table II, 4 WAT
# How it was run: as §1
# Wild Buckwheat = test: post-emergent herbicidal activity, greenhouse; conditions: Table II, 4 WAT
# How it was run: as §1
# Yellow Nutsedge [10] = test: post-emergent herbicidal activity, greenhouse; conditions: Table I, 4 WAT
# How it was run: as §1
# Barnyardgrass [11] = test: pre-emergent herbicidal activity, soil incorporation; conditions: Table III, 2 WAT, 11.2 kg/h
# Description: (§2) A good grade of top soil is placed in aluminum pans and compacted to a depth of 0.95 to 1.27 cm. from the top of each pan. A predetermined number of seeds or vegetative propagules of each of several plant species are placed on top of the soil in each pan and then pressed down. Herbicidal compositions prepared as in the previous example are applied by admixture with or incorporation in the top layer of soil.
# (§3) In this method, the soil required to cover the seeds and propagules is weighed and admixed with a herbicidal composition containing a known amount of the active ingredient (compound of this invention). The pans are then filled with the admixture and leveled. Watering is carried out by permitting the soil in the pans to absorb moisture through apertures in the pan bottoms. The seed and propagule containing pans are placed on a wet sand bench and maintained for approximately two weeks under ordinary conditions of sunlight and watering. At the end of this period, the number of emerged plants of each species is noted and compared to an untreated control.
# (§4) The pre-emergent herbicidal activity index used below is based upon average percent control of each species as follows: […]
# Cocklebur [12] = test: as above; conditions: Table III, 2 WAT, 11.2 kg/h
# Description: as §2, §3, §4
# Downy Brome [13] = test: as above; conditions: Table III, 2 WAT, 11.2 kg/h
# Description: as §2, §3, §4
# Johnsongrass [14] = test: as above; conditions: Table III, 2 WAT, 11.2 kg/h
# Description: as §2, §3, §4
# Lambsquarters [15] = test: as above; conditions: Table III, 2 WAT, 11.2 kg/h
# Description: as §2, §3, §4
# Morningglory [16] = test: as above; conditions: Table III, 2 WAT, 11.2 kg/h
# Description: as §2, §3, §4
# Quackgrass [17] = test: as above; conditions: Table III, 2 WAT, 11.2 kg/h
# Description: as §2, §3, §4
# Smartweed [18] = test: as above; conditions: Table III, 2 WAT, 11.2 kg/h
# Description: as §2, §3, §4
# Velvetleaf [19] = test: as above; conditions: Table III, 2 WAT, 11.2 kg/h
# Description: as §2, §3, §4
# Yellow Nutsedge [20] = test: as above; conditions: Table III, 2 WAT, 11.2 kg/h
# Description: as §2, §3, §4
structure (smiles),measurement,setting,value
"CCOCCOC(=O)CNCP(=O)(O)OC(C)C#N (stereo not drawn) [Example 9, glycine, N-[[(1-cyanoethoxy)hydroxyphosphinyl]-methyl],2-ethoxyethyl ester]",post-emergent herbicidal activity index,"Barnyardgrass [1]; Table I, 5.6 kg/h",3 (75-99% control)
same,post-emergent herbicidal activity index,"Barnyardgrass [1]; Table I, 11.2 kg/h",3 (75-99% control)
same,post-emergent herbicidal activity index,"Barnyardgrass [1]; Table II, 0.28 kg/h",2 (50-74% control)
same,post-emergent herbicidal activity index,"Barnyardgrass [1]; Table II, 1.12 kg/h",3 (75-99% control)
same,post-emergent herbicidal activity index,"Barnyardgrass [1]; Table II, 5.6 kg/h",3 (75-99% control)
same,post-emergent herbicidal activity index,"Cocklebur [2]; Table I, 5.6 kg/h",3 (75-99% control)
same,post-emergent herbicidal activity index,"Cocklebur [2]; Table I, 11.2 kg/h",4 (100% control)
same,post-emergent herbicidal activity index,"Cocklebur [2]; Table II, 0.28 kg/h",1 (25-49% control)
same,post-emergent herbicidal activity index,"Cocklebur [2]; Table II, 1.12 kg/h",1 (25-49% control)
same,post-emergent herbicidal activity index,"Cocklebur [2]; Table II, 5.6 kg/h",4 (100% control)
same,post-emergent herbicidal activity index,"Downy Brome [3]; Table I, 5.6 kg/h",2 (50-74% control)
same,post-emergent herbicidal activity index,"Downy Brome [3]; Table I, 11.2 kg/h",3 (75-99% control)
same,post-emergent herbicidal activity index,"Downy Brome [3]; Table II, 0.28 kg/h",2 (50-74% control)
same,post-emergent herbicidal activity index,"Downy Brome [3]; Table II, 1.12 kg/h",1 (25-49% control)
same,post-emergent herbicidal activity index,"Downy Brome [3]; Table II, 5.6 kg/h",4 (100% control)
same,post-emergent herbicidal activity index,Hemp Sesbania; 0.28 kg/h,1 (25-49% control)
same,post-emergent herbicidal activity index,Hemp Sesbania; 1.12 kg/h,1 (25-49% control)
same,post-emergent herbicidal activity index,Hemp Sesbania; 5.6 kg/h,1 (25-49% control)
same,post-emergent herbicidal activity index,Johnsongrass [4]; 5.6 kg/h,4 (100% control)
same,post-emergent herbicidal activity index,Johnsongrass [4]; 11.2 kg/h,4 (100% control)
same,post-emergent herbicidal activity index,"Lambsquarters [5]; Table I, 5.6 kg/h",4 (100% control)
same,post-emergent herbicidal activity index,"Lambsquarters [5]; Table I, 11.2 kg/h",4 (100% control)
same,post-emergent herbicidal activity index,"Lambsquarters [5]; Table II, 0.28 kg/h",4 (100% control)
same,post-emergent herbicidal activity index,"Lambsquarters [5]; Table II, 1.12 kg/h",4 (100% control)
same,post-emergent herbicidal activity index,"Lambsquarters [5]; Table II, 5.6 kg/h",4 (100% control)
same,post-emergent herbicidal activity index,"Morningglory [6]; Table I, 5.6 kg/h",2 (50-74% control)
same,post-emergent herbicidal activity index,"Morningglory [6]; Table I, 11.2 kg/h",3 (75-99% control)
same,post-emergent herbicidal activity index,"Morningglory [6]; Table II, 0.28 kg/h",2 (50-74% control)
same,post-emergent herbicidal activity index,"Morningglory [6]; Table II, 1.12 kg/h",2 (50-74% control)
same,post-emergent herbicidal activity index,"Morningglory [6]; Table II, 5.6 kg/h",2 (50-74% control)
same,post-emergent herbicidal activity index,Panicum Spp; 0.28 kg/h,4 (100% control)
same,post-emergent herbicidal activity index,Panicum Spp; 1.12 kg/h,4 (100% control)
same,post-emergent herbicidal activity index,Panicum Spp; 5.6 kg/h,4 (100% control)
same,post-emergent herbicidal activity index,Quackgrass [7]; 5.6 kg/h,4 (100% control)
same,post-emergent herbicidal activity index,Quackgrass [7]; 11.2 kg/h,4 (100% control)
same,post-emergent herbicidal activity index,Rice; 0.28 kg/h,1 (25-49% control)
same,post-emergent herbicidal activity index,Rice; 1.12 kg/h,2 (50-74% control)
same,post-emergent herbicidal activity index,Rice; 5.6 kg/h,3 (75-99% control)
same,post-emergent herbicidal activity index,"Smartweed [8]; Table I, 5.6 kg/h",2 (50-74% control)
same,post-emergent herbicidal activity index,"Smartweed [8]; Table I, 11.2 kg/h",3 (75-99% control)
same,post-emergent herbicidal activity index,"Smartweed [8]; Table II, 0.28 kg/h",2 (50-74% control)
same,post-emergent herbicidal activity index,"Smartweed [8]; Table II, 1.12 kg/h",2 (50-74% control)
same,post-emergent herbicidal activity index,"Smartweed [8]; Table II, 5.6 kg/h",1 (25-49% control)
same,post-emergent herbicidal activity index,Sorghum; 0.28 kg/h,2 (50-74% control)
same,post-emergent herbicidal activity index,Sorghum; 1.12 kg/h,1 (25-49% control)
same,post-emergent herbicidal activity index,Sorghum; 5.6 kg/h,3 (75-99% control)
same,post-emergent herbicidal activity index,Soybean; 0.28 kg/h,1 (25-49% control)
same,post-emergent herbicidal activity index,Soybean; 1.12 kg/h,3 (75-99% control)
same,post-emergent herbicidal activity index,Soybean; 5.6 kg/h,4 (100% control)
same,post-emergent herbicidal activity index,Sugar Beet; 0.28 kg/h,3 (75-99% control)
same,post-emergent herbicidal activity index,Sugar Beet; 1.12 kg/h,2 (50-74% control)
same,post-emergent herbicidal activity index,Sugar Beet; 5.6 kg/h,4 (100% control)
same,post-emergent herbicidal activity index,"Velvetleaf [9]; Table I, 5.6 kg/h",3 (75-99% control)
same,post-emergent herbicidal activity index,"Velvetleaf [9]; Table I, 11.2 kg/h",4 (100% control)
same,post-emergent herbicidal activity index,"Velvetleaf [9]; Table II, 0.28 kg/h",1 (25-49% control)
same,post-emergent herbicidal activity index,"Velvetleaf [9]; Table II, 1.12 kg/h",3 (75-99% control)
same,post-emergent herbicidal activity index,"Velvetleaf [9]; Table II, 5.6 kg/h",3 (75-99% control)
same,post-emergent herbicidal activity index,Wheat; 0.28 kg/h,2 (50-74% control)
same,post-emergent herbicidal activity index,Wheat; 1.12 kg/h,3 (75-99% control)
same,post-emergent herbicidal activity index,Wheat; 5.6 kg/h,3 (75-99% control)
same,post-emergent herbicidal activity index,Wild Buckwheat; 0.28 kg/h,1 (25-49% control)
same,post-emergent herbicidal activity index,Wild Buckwheat; 1.12 kg/h,0 (0-24% control)
same,post-emergent herbicidal activity index,Wild Buckwheat; 5.6 kg/h,3 (75-99% control)
same,post-emergent herbicidal activity index,Yellow Nutsedge [10]; 5.6 kg/h,1 (25-49% control)
same,post-emergent herbicidal activity index,Yellow Nutsedge [10]; 11.2 kg/h,3 (75-99% control)
same,pre-emergent herbicidal activity index,Barnyardgrass [11],0 (1-24% control)
same,pre-emergent herbicidal activity index,Cocklebur [12],0 (1-24% control)
same,pre-emergent herbicidal activity index,Downy Brome [13],0 (1-24% control)
same,pre-emergent herbicidal activity index,Johnsongrass [14],0 (1-24% control)
same,pre-emergent herbicidal activity index,Lambsquarters [15],0 (1-24% control)
same,pre-emergent herbicidal activity index,Morningglory [16],0 (1-24% control)
same,pre-emergent herbicidal activity index,Quackgrass [17],0 (1-24% control)
same,pre-emergent herbicidal activity index,Smartweed [18],0 (1-24% control)
same,pre-emergent herbicidal activity index,Velvetleaf [19],0 (1-24% control)
same,pre-emergent herbicidal activity index,Yellow Nutsedge [20],1 (25-49% control)

# From US4442044A, “Process for preparing monoesters and diesters of N-alkyl substituted amino methyl phosphonic acid” (priority 1983, dated 1984)
